Results: ChEMBL document CHEMBL4616674, “Fragment-based Differential Targeting of PPI Stabilizer Interfaces” (J Med Chem, 2020)
Activity calls are given as the source filed them. The rule behind the calls is not given here.

Experiments:
[1] = target: T1, 14-3-3 protein sigma (Homo sapiens) (UniProt P31947); test: Binding affinity to 6x-His tagged 14-3-3-sigma (unknown origin) expressed in Escherichia coli BL21 (DE3) in presence of acetylated p53pT387 peptide by crystallography
T1 sequence (whole entry): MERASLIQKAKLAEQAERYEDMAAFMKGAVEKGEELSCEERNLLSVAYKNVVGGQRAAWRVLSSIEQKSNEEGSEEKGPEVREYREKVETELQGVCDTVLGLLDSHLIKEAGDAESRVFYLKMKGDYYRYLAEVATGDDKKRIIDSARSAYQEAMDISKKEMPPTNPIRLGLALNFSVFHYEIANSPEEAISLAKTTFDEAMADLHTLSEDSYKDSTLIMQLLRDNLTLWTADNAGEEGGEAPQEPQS

[2] = target: T1, 14-3-3 protein sigma (Homo sapiens); test: Binding affinity to 15N2H labeled and 6x-His tagged 14-3-3-sigma (unknown origin) expressed in Escherichia coli assessed as induction of broadening (intensity decrease) and chemical shift value perturbation at 2000 uM in presence of p53pT387 peptide by 1H-15N TROSY-HSQC NMR spectroscopy
[3] = target: T1, 14-3-3 protein sigma (Homo sapiens); test: Binding affinity to 15N2H labeled and 6x-His tagged 14-3-3-sigma (unknown origin) expressed in Escherichia coli assessed as induction of broadening (intensity decrease) and chemical shift value perturbation at 2000 uM in absence of p53pT387 peptide by 1H-15N TROSY-HSQC NMR spectroscopy
[4] = target: T1, 14-3-3 protein sigma (Homo sapiens); test: Binding affinity to 6x-His tagged 14-3-3-sigma (unknown origin) expressed in Escherichia coli BL21 (DE3) at 500 uM in presence of p53pT387 peptide by WaterLOGSY NMR spectroscopy
[5] = target: T1, 14-3-3 protein sigma (Homo sapiens); test: Binding affinity to 6x-His tagged 14-3-3-sigma (unknown origin) expressed in Escherichia coli at 1 mM by fluorescence polarization assay
[6] = target: T1, 14-3-3 protein sigma (Homo sapiens); test: Binding affinity to 6x-His tagged 14-3-3-sigma (unknown origin) expressed in Escherichia coli at 1 mM by SPR assay

SMILES: N=C(N)c1cc(-c2ccccc2)c(-c2c[nH]cn2)s1
- Activity [1]: Active

SMILES: CC(C)Oc1ccc(C(=O)NCCN)c2cc(C(=N)N)sc12
- Activity [2]: Active
- Activity [3]: Active
- Activity [4]: Active
- Activity [5]: Active
- Activity [6]: Active

SMILES: CC(CN)Nc1cc(CS)cc2sc(C(=N)N)cc12 (stereo not drawn)
- Activity [1]: Active

SMILES: CC(CN)Nc1cccc2cc(C(=N)N)sc12 (stereo not drawn)
- Activity [1]: Active
